Test results: US12503451B2, “2-arylthiazole derivative or salt thereof, preparation method therefor, and pharmaceutical composition comprising same” (HEXAPHARMATEC CO., LTD., priority 2020, dated 2025)
Where a name gives a salt, the structure may show the parent alone. Read-outs that look alike come from different tables or passages of the source.

Key:
[1] = tested on: primary mouse cortical neuron cells; assay: Inhibitory activity against neuronal apoptosis by beta amyloid (CCK-8), neuron cells; assay type: cell-based; settings: Cortical neurone, read-out: Cell viability (%) (Neuron cells)
Description: (§1) The inhibitory activities of the compounds of the present invention against neuronal apoptosis by beta amyloid, known as the major cytotoxic substance in neurodegenerative diseases, were analyzed in N2a cells (ATCC, CCL-131, mouse neuroblastoma cell line) and neuron cells (primary mouse cortical neuron cells) isolated in the same manners as in Test Example 2. The media used in Test Example 3 and Test Example 2 were used as a medium for the N2a cells and as a medium for the neuron cells, respectively. Specifically, N2a cells (3×10^4 cells) and neuron cells (8×10^4 cells), along with the respective media, were added to each well of a 96-well plate and then incubated overnight at 37° C. in a CO2 incubator. The cells were treated with the compound of Example 10 and the compound of Example 29 at the concentrations of 5 μM and 500 nM, respectively, treated with 20 μM of beta amyloid after 30 minutes therefrom, and then incubated at 37° C. in a CO2 incubator for 72 hours. The cells were treated with 10 μL of CCK-8 reagent (Enzo Life Science, ALX-850-039-KI02) and then incubated at 37° C. in a CO2 incubator for 2 hours. Three wells were tested for each group and each absorbance was measured at 450 nm. The absorbance value of the untreated control group was set to 100% cell viability. The cell viability of each group was calculated from the respective absorbance values.

N2a cells [2] = assay: Inhibitory activities against mitochondrial damage by rotenone (XF Cell Mito Stress Test); assay type: cell-based, mouse; settings: 5 μM + 10 μM rotenone
Description: The inhibitory activities of the compounds of the present invention against mitochondrial damage by rotenone, known as the major cytotoxic substance in neurodegenerative diseases, were analyzed in N2a cells (ATCC, CCL-131, mouse neuroblastoma cell line). Specifically, N2a cells (3×10^4 cells) and a medium (DMEM (Dulbecco's modified Eagle's medium, Gibco, 11995-065) supplemented with 5% heat-inactivated fetal bovine serum (FBS; Gibco, 16000-044) and 50 μg/ml penicillin-streptomycin (Gibco, 15140-122) were added to each well of a XF24-well culture plate and then incubated overnight at 37° C. in a CO2 incubator. The cells were treated with the compound of Example 10 (5 μM), treated with 10 μM of rotenone after 30 minutes therefrom, and then incubated at 37° C. in a CO2 incubator for 24 hours. After the treatment with a XF Cell Mito Stress Test Kit (Seahorse Bioscience, 103015-100) according to the manufacturer's instructions, the level of mitochondrial respiration was measured, using an XF24 Extracellular Flux Analyzer (Seahorse Bioscience). Four wells were tested for each group; and the basal respiration, the ATP production, the maximal respiration, and the spare respiratory capacity were measured. The levels of each mitochondrial respiration were normalized by the protein quantification value. The basal respiration of the untreated control group was set to 100% and the remaining values are shown. In Table 10, the control group represents a group treated with only 10 μM of rotenone.

[3] = tested on: primary mouse cortical neuron cells; assay: Autophagic vesicle formation (CYTO-ID Autophagy Detection Kit); assay type: cell-based; settings: for Cyto-ID fluorescence value (relative intensity): 5 μM, 24 hours, untreated control = 1; for Autophagic vesicle formation compared to rapamycin (in words): at ½ concentration of rapamycin (5 μM vs 10 μM)
Description: Autophagy lysosomal pathway (ALP) activation by the compounds of the present invention was verified, through measuring the degree of autophagic vesicle formation in neuron cells with the CYTO-ID™ Autophagy Detection Kit (ENZ-51031-K200, Enzo Life Sciences, Inc.). Neuron cells (i.e., primary mouse cortical neuron cells) were isolated from mice using an enzymatic digest method. Specifically, primary mouse cortical neuron cells were isolated by incubating the cortice tissues derived from 16 day embryonic C57BL6 mice, at 37° C. for 30 minutes, with 20 U/ml papain (Worthington Biochemical Corporation, LK003176) and 0.005% DNase I (Worthington Biochemical Corporation, LK003170).
The primary mouse cortical neuron cells (8×10^4 cells) and a medium (a neural cell culture media containing 2 mM L-glutamine (Gibco, 25030-081), N2 supplement (Gibco, 17502-048), B27 supplement (Gibco, 17504-044), and 50 μg/ml penicillin-streptomycin (Gibco, 15140-122)) were added to each well of a 96-well plate and then incubated overnight at 37° C. in a CO2 incubator. The compound of Example 10 (5 μM), the compound of Example 29 (5 μM), and rapamycin (10 μM) were respectively treated to the cells, which were incubated at 37° C. in a CO2 incubator for 24 hours. After each well was washed with 1×Assay Buffer (Enzo Life Science, ENZ-51031-K200), 0.2 μl of Cyto-ID autophagy dye and 0.1 μl of Hoechst 33342 were treated to the cells, which were incubated at 37° C. in a CO2 incubator for 30 minutes. After each well was washed with 1×Assay Buffer (Enzo Life Science, ENZ-51031-K200), the fluorescence values of Cyto-ID (EX: 480 nm, EM: 530 nm) and Hoechst 33342 (EX: 340 nm, EM: 480 nm) were respectively measured with a fluorometer. Three wells were tested for each group. After normalization was carried out through dividing the Cyto-ID fluorescence value of each well by Hoechst 33342 fluorescence value, each relative intensity was calculated by setting that of the untreated control to 1.

N2a cells [4] = assay: Inhibitory activity against neuronal apoptosis by beta amyloid (CCK-8), N2a cells; assay type: cell-based, mouse; settings: for viability at 5 µM: Mus musculus, N2a, read-out: Cell viability (%) (N2a cells); for Inhibition of cytotoxicity caused by beta amyloid treatment (in words): Table 9: N2a cells 5 μM and neuron cells 500 nM
Description: as §1

N2a cells [5] = assay: Autophagy flux by electron microscope imaging; assay type: cell-based, mouse
Description: N2a cells (ATCC, CCL-131, mouse neuroblastoma cell line) (3×10^4 cells) and a medium (DMEM (Dulbecco's modified Eagle's medium, Gibco, 11995-065) supplemented with 5% heat-inactivated fetal bovine serum, FBS; Gibco, 16000-044) and 50 μg/ml penicillin-streptomycin (Gibco, 15140-122) were added to each well of a 6-well plate and incubated overnight at 37° C. in a CO2 incubator. The compound of Example 29 (5 μM) and rapamycin (10 μM) were respectively treated and then incubated at 37° C. in a CO2 incubator for 24 hours. Three wells per each group were subject to electron microscope block formation and then pre-fixation, post-fixation, dehydration, substitution, and embedding were carried out according to a flat-embedding method. After ultra-thin sections having a thickness of 70 nm were prepared, heavy metal staining (uranyl acetate, lead citrate) was carried out on the each section, which was photographed through a mosaic imaging technique for imaging the entire cells. In addition, the results obtained by measuring the numbers of the total autophagies (autophagic vesicles), autophagosomes, and autolysosomes per cell according to the treatment groups are shown in Table 3 below. In Table 3 below, the control means the untreated control.

[6] = tested on: dimethylnitrosamine (DMN)-induced liver injury male SD rats; assay: Liver function-improving activities by oral administration in the liver injury model (2); assay type: in vivo, rat
Description: Specifically, 7-week-old male SD rats (Orient Bio, Korea) were accommodated to the laboratory environment at room temperature for 7 days. General symptoms were observed and then only healthy animals were used for the experiment. The rats were divided into 5 groups (n=10 for each group), i.e., the normal control group, the group to which only DMN is administered, and the group to which both the compound of the present invention (the compound of Example 23, 26, or 29) and DMN are administered. DMN was dissolved in purified water and then administered intraperitoneally at the dose of 10 mg/kg for 3 consecutive days per week (3 times per week, for 4 weeks). Blood samples were collected after the completion of the fourth-week liver injury inducement and then the serum ALT (Alanine Transaminase) values and the serum AST (Aspartate Transaminase) values were measured so as to confirm the liver injury thereof. […] Blood samples were collected on Day 0 (1 day after the completion of the fourth-week liver injury inducement) and Day 7, 14, 21 and 28 after the administration of the test materials. The collected blood was injected into a vacutainer tube containing a clot activator and then allowed to stand at room temperature for about 20 minutes so as to coagulate each blood sample. After centrifugation for 10 minutes, the resulting serums were subjected to blood-biochemical tests. In addition, at 24 hours after the last administration, an autopsy for hepatectomy and fixation was performed to prepare the tissue specimens thereof. After preparing the slides with the tissue specimens, hematoxylin and eosin (H&E) staining was performed thereon for microscopic observation of damages to liver tissue and inflammatory cell infiltrations in liver tissues. In addition, Masson's trichrome staining was also performed thereon for microscopic observation of collagen fiber depositions in liver tissues. The results obtained from the measurements were subject to group comparison, through parametric multiple comparisons or non-parametric multiple comparisons, with SPSS. When P<0.05, it was determined to be statistically significant. […] Therefore, it can be confirmed that the compounds of the present invention have excellent treating activity against liver fibrosis. […] From the results of FIG. 4, the degrees of damage to liver tissue and inflammatory cell infiltration in liver tissues were measured. And also, from the results of FIG. 4, the degree of collagen fiber deposition in liver tissues was measured.

[7] = 24 hours, basal respiration of untreated control = 100%
[8] = 0 week (Day 0, after 4 weeks DMN, before administration)
[9] = 1 week, 25 mg/kg oral once a day after 4 weeks DMN
[10] = 2 weeks, 25 mg/kg oral once a day after 4 weeks DMN
[11] = 3 weeks, 25 mg/kg oral once a day after 4 weeks DMN
[12] = 4 weeks, 25 mg/kg oral once a day after 4 weeks DMN

## Cc1nc(-c2ccc(OCC(C)C)c(C#N)c2)sc1C(=O)NCC1(N(C)C)CCOCC1 [Example 10, N-((4-(dimethylamino)tetrahydro-2H-pyran-4-yl)methyl)-2-(3-cyano-4-isobutoxyphenyl)-4-methylthiazole-5-carboxamide hydrochloride]
[1]; 500 nM, 20 μM beta amyloid, 72 hours, untreated control = 100%
  viability at 0.5 µM: 52.2%
N2a cells [2]
  Recovery of mitochondrial damage by rotenone treatment (in words): recovers the mitochondrial damage by rotenone treatment in a statistically significant level
N2a cells [2]; [7]
  Mitochondrial respiration (%): ATP production: 31.65%
  Mitochondrial respiration (%): Basal: 51.69%
  Mitochondrial respiration (%): Maximal: 62.28%
  Mitochondrial respiration (%): Spare: 16.33%
[3]
  Cyto-ID fluorescence value (relative intensity): 1.813
  Autophagic vesicle formation compared to rapamycin (in words): significantly increase autophagic vesicle formation
N2a cells [4]; 5 μM, 20 μM beta amyloid, 72 hours, untreated control = 100%
  viability at 5 µM: 68.9%
N2a cells [4]
  Inhibition of cytotoxicity caused by beta amyloid treatment (in words): significantly inhibit the cytotoxicity caused by beta amyloid treatment

## CCN(CC)CCOc1ccc(-c2nc(C)c(C(=O)NCC3(N(C)C)CCOCC3)s2)cc1C#N.Cl.Cl [Example 29, N-((4-(dimethylamino)tetrahydro-2H-pyran-4-yl)methyl)-2-(4-(2-diethylamino)ethoxy-3-cyanophenyl)-4-methylthiazole-5-carboxamide hydrochloride]
N2a cells [5]; 5 μM, 24 hours
  Numbers of the autophagy per cell: Autolysosome: 14.9
  Numbers of the autophagy per cell: Autophagic vesicles: 22.3
  Numbers of the autophagy per cell: Autophagosome: 6.9
N2a cells [5]; at ½ concentration of rapamycin (5 μM vs 10 μM)
  Autophagic vesicle and autolysosome formation compared to rapamycin (in words): significantly increase autophagic vesicle formation, especially autolysosome formation
[1]; 72 h
  viability at 0.5 µM: 53.3%
[6]; [8]
  ALT values (average value): 219.29 U/L
  AST values (average value): 376.67 U/L
[6]; [9]
  ALT values (average value): 99.31 U/L
  AST values (average value): 164.60 U/L
[6]; [10]
  ALT values (average value): 66.57 U/L
  AST values (average value): 143.87 U/L
[6]; [11]
  ALT values (average value): 53.03 U/L
  AST values (average value): 127.65 U/L
[6]; [12]
  ALT values (average value): 52.97 U/L
  AST values (average value): 123.33 U/L
[3]
  Cyto-ID fluorescence value (relative intensity): 2.171
  Autophagic vesicle formation compared to rapamycin (in words): significantly increase autophagic vesicle formation
N2a cells [4]; 72 h
  viability at 5 µM: 68.5%
N2a cells [4]
  Inhibition of cytotoxicity caused by beta amyloid treatment (in words): significantly inhibit the cytotoxicity caused by beta amyloid treatment
